# Experimental data taken from publication PMC11879140, “Engineering of Phycourobilin Synthase: PubS to a Two-Electron Reductase” (Plant and Cell Physiology, 2024).
# Legend:
# Experiment in all cases: absorption spectrum of BV complex; anaerobic bilin reductase assay with HPLC
# Type in all cases: biochemical
# Settings in all cases: ferredoxin (Synechococcus sp. PCC 7002), FNR, NADPH 100 uM; 10 uM BV, 10 uM PubS; pH 8.5, 30 °C
# ΔΝ_PpPubS (PpPubS, PubS) [1] = target: T1, ΔΝ_PpPubS (PpPubS, PubS) (Physcomitrium patens, UniProt I3TC50, N310R)
# T1 construct: residues 1-55 (N-terminal disordered region) deleted; N-terminal His-tag, pET28a, synthetic codon-optimised gene, E. coli C41
# T1 sequence (I3TC50 entry or part of it N310R): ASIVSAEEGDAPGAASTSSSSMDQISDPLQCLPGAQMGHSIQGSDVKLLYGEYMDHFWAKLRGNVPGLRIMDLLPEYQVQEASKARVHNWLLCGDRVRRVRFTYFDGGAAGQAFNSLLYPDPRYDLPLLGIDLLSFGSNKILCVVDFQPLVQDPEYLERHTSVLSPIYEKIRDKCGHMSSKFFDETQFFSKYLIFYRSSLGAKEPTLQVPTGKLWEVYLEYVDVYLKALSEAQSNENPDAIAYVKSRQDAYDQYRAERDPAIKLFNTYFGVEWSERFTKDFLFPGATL
# ΔΝ_PpPubS (PpPubS, PubS) [2] = target: T2, ΔΝ_PpPubS (PpPubS, PubS) (Physcomitrium patens, UniProt I3TC50, E240A/N310R)
# T2 construct: residues 1-55 (N-terminal disordered region) deleted; N-terminal His-tag, pET28a, synthetic codon-optimised gene, E. coli C41
# T2 sequence (I3TC50 entry or part of it E240A/N310R): as the sequence (I3TC50 entry or part of it N310R) above, with E185A counted along it
# ΔΝ_PpPubS (PpPubS, PubS) [3] = target: T3, ΔΝ_PpPubS (PpPubS, PubS) (Physcomitrium patens, UniProt I3TC50, F238A/N310R)
# T3 construct: residues 1-55 (N-terminal disordered region) deleted; N-terminal His-tag, pET28a, synthetic codon-optimised gene, E. coli C41
# T3 sequence (I3TC50 entry or part of it F238A/N310R): as the sequence (I3TC50 entry or part of it N310R) above, with F183A counted along it
smiles,measurement,setting,value
C=CC1=C(C)C(=Cc2[nH]c(C=C3N=C(C=C4NC(=O)C(C)=C4C=C)C(C)=C3CCC(=O)O)c(CCC(=O)O)c2C)NC1=O [biliverdin IXα],absorption spectrum of BV complex; anaerobic bilin reductase assay with HPLC,"ΔΝ_PpPubS (PpPubS, PubS) [1]",PpPubS_N310R exhibited a decrease in BV absorbance similar to the wild-type molecule
same,absorption spectrum of BV complex; anaerobic bilin reductase assay with HPLC,"ΔΝ_PpPubS (PpPubS, PubS) [2]",Spectroscopic observations of these variants showed a decrease in BV after the addition of NADPH
same,absorption spectrum of BV complex; anaerobic bilin reductase assay with HPLC,"ΔΝ_PpPubS (PpPubS, PubS) [3]",Spectroscopic observations of these variants showed a decrease in BV after the addition of NADPH
